Test results published in publication PMC8584173, “The Cytotoxic Effect of Copper (II) Complexes with Halogenated 1,3-Disubstituted Arylthioureas on Cancer and Bacterial Cells” (International Journal of Molecular Sciences, 2021).

Columns and labels:
[1] = system: SW620 (human metastatic colon cancer); assay: MTT cytotoxicity assay, SW620; format: cell-based; settings: SW620, 72 h
Method: (§1) The human primary (SW480), metastatic (SW620) colon cancer, metastatic prostate cancer (PC3) and human immortal keratinocyte (HaCaT) cell lines were purchased from the American Type Culture Collection (ATCC, Rockville, USA). The cells were cultured in medium according to protocols (MEM for SW480 and SW620, RPMI 1640 for PC3 and DMEM for HaCaT cells) supplemented with 10% fetal bovine serum (FBS), penicillin (100 U/mL) and streptomycin (100 μg/mL) and cultured in 37 °C/ 5% CO2 humidified incubator. The cells were cultured until appropriate confluence was achieved (80–90%). Next, they were harvested by treatment with 0.25% trypsin (Gibco Life Technologies, USA) and used for studies.
(§2) Cells without studied compounds in medium were used as a control.
(§3) The cell viability was assessed by determination of MTT salt (3-(4,5-dimethylthiazol-2-yl)-2,5-diphenyltetrazolium bromide) conversion by mitochondrial dehydrogenase. MTT assay was performed as previously described. Experiments were repeated three times. Cell viability was presented as a percentage of MTT reduction in the treated cells versus the control cells. Number of viable cells cultured without studied compounds was assumed to be 100%. Decreased relative MTT level means decreased cell viability.

[2] = system: HaCaT (human immortal keratinocyte cell line); assay: MTT cytotoxicity assay, HaCaT; format: cell-based; settings: HaCaT normal cells, 72 h
Method: as §1, §2
as §3, with “viability. Thiourea complexes with the highest cytotoxic potential assessed by MTT determination (with the lowest IC50) were chosen for subsequent assessments of cytotoxicity mechanisms.” for “viability.”

S. aureus ATCC 25923 = assay: MIC, twofold serial microdilution; format: cell-based, Staphylococcus aureus; settings: S. aureus ATCC 25923, 18 h, 35 °C
Method: (§4) The antimicrobial activity of the compounds was tested on Gram-positive bacteria (Staphylococcus aureus NCTC 4163, Staphylococcus aureus ATCC 25923, Staphylococcus aureus ATCC 6538, Staphylococcus aureus ATCC 29213, Staphylococcus epidermidis ATCC 12228, Staphylococcus epidermidis ATCC 35984), Gram-negative rods (Escherichia coli ATCC 10538, Escherichia coli ATCC 25922, Pseudomonas aeruginosa ATCC 15442, Pseudomonas aeruginosa ATCC 27863) and yeasts (Candida albicans ATCC 10231, Candida albicans ATCC 90028, Candida parapsilosis ATCC 22019). Hospital methicillin-resistant strains of Staphylococcus aureus and Staphylococcus epidermidis were obtained from the collection of the Department of Pharmaceutical Microbiology, Medical University of Warsaw, Poland.
(§5) Antifungal activities were assessed using Mueller–Hinton agar + 2% glucose and 0.5 µg/mL methylene blue dye medium. Sterile filter paper discs (9 mm diameter, Whatman Number 3 chromatography paper) were dripped with tested compound solutions (in dimethylsulfoxide, DMSO) to load 400 μg of a given compound per disc. Dry discs were placed on the surface of appropriate agar medium. The results (diameter of the growth inhibition zone) were read after 18 h of incubation at 35 °C. Minimal inhibitory concentration (MIC) was tested by the twofold serial microdilution method (in 96-well microtiter plates) using Mueller–Hinton broth medium (Beckton Dickinson) for bacteria or RPMI-1640 medium for Candida species, according to CLSI guidelines. The stock solution of tested agent was prepared in DMSO and diluted in sterile water. […] The final inoculum of all studied microorganisms was 10^5 CFU/ mL^−1 (colony forming units per ml). Minimal inhibitory concentrations (the lowest concentration of a tested agent that prevents visible growth of a microorganism) were read after 18 h (bacteria) or 24 h (yeasts) of incubation at 35 °C.

S. aureus ATCC 29213 = assay: MIC, twofold serial microdilution; format: cell-based, Staphylococcus aureus; settings: S. aureus ATCC 29213, 18 h, 35 °C
Method: as §4, §5

S. aureus ATCC 6538 = assay: MIC, twofold serial microdilution; format: cell-based, Staphylococcus aureus; settings: S. aureus ATCC 6538, 18 h, 35 °C
Method: as §4, §5

S. aureus NCTC 4163 = assay: MIC, twofold serial microdilution; format: cell-based, Staphylococcus aureus; settings: S. aureus NCTC 4163, 18 h, 35 °C
Method: as §4, §5

E. coli ATCC 25922 = assay: MIC, twofold serial microdilution; format: cell-based, Escherichia coli; settings: E. coli ATCC 25922, 18 h, 35 °C
Method: as §4, §5

E. coli NCTC 10538 = assay: MIC, twofold serial microdilution; format: cell-based, Escherichia coli; settings: E. coli NCTC 10538, 18 h, 35 °C
Method: as §4, §5

S. aureus 495 = assay: MIC, hospital MRSA strain; format: cell-based, Staphylococcus aureus; settings: hospital MRSA S. aureus 495
Method: as §4, §5

S. aureus 497 = assay: MIC, hospital MRSA strain; format: cell-based, Staphylococcus aureus; settings: hospital MRSA S. aureus 497
Method: as §4, §5

S. aureus 537 = assay: MIC, hospital MRSA strain; format: cell-based, Staphylococcus aureus; settings: hospital MRSA S. aureus 537
Method: as §4, §5

S. aureus 567 = assay: MIC, hospital MRSA strain; format: cell-based, Staphylococcus aureus; settings: hospital MRSA S. aureus 567
Method: as §4, §5

S. aureus 572 = assay: MIC, hospital MRSA strain; format: cell-based, Staphylococcus aureus
Method: as §4, §5

S. aureus 586 = assay: MIC, hospital MRSA strain; format: cell-based, Staphylococcus aureus; settings: hospital MRSA S. aureus 586
Method: as §4, §5

[3] = system: hospital S. epidermidis (MRSE); assay: MIC, hospital S. epidermidis; format: cell-based, Staphylococcus epidermidis; settings: S. epidermidis 424, 471, 511, 515 and 431–433 isolates
Method: as §4, §5

[4] = system: Bacillus subtilis M45 (rec−); assay: Bacillus subtilis rec-assay, M45; format: cell-based; settings: B. subtilis M45; 256 µg per disc (NOQ 2 µg per disc)
Method: DNA-damaging activity of compounds was tested by rec-assay using two genetically modified Bacillus subtilis strains: M45 (rec^−) and H17 (rec^+). Tested compounds were dissolved in DMSO, and 10 µL of each solution was dripped onto sterile cotton discs (Rotilabo) to load 256 µg of a given compound per 9 mm disc. Discs were placed on the surface nutrient agar plates (Difco), inoculated with 100 µL of bacterial overnight culture and incubated […] at 35 °C. After incubation, the growth inhibition zones were measured. […] Results of the genotoxicity test were estimated after 18 h of incubation at 35 °C by comparing the diameter of the inhibition zone on the B. subtilis M45 (rec^−) strain with that on the B. subtilis H17 (rec^+) strain.

O=[N+]([O-])c1cc([N+]2=C(Nc3ccc(I)cc3)[S][Cu-2]23[S]C(Nc2ccc(I)cc2)=[N+]3c2ccc(Cl)c([N+](=O)[O-])c2)ccc1Cl [Compound 8, Copper (II) complex with 1-(4-iodophenyl)-3-(4-chloro-3-nitrophenyl)thiourea] was tested, and the IC50 [1] was 17.8 ± 1.3 µM, the IC50 [2] was 103 ± 3.4 µM and the MIC (S. aureus ATCC 25923) was 4 µg/mL. It also gave an MIC (S. aureus ATCC 29213) of 4 µg/mL, an MIC (S. aureus ATCC 6538) of 4 µg/mL and an MIC (S. aureus NCTC 4163) of 4 µg/mL. It also gave an MIC (E. coli ATCC 25922) of 128 µg/mL, an MIC (E. coli NCTC 10538) of 128 µg/mL and an MIC (S. aureus 495) of 4 µg/mL. The MIC (S. aureus 497) was 8 µg/mL, the MIC (S. aureus 537) was 8 µg/mL and the MIC (S. aureus 567) was 8 µg/mL. For the same compound, the “times more active than ciprofloxacin” value (S. aureus 572; S. aureus 572) was 64 times, the MIC (S. aureus 572; hospital MRSA S. aureus 572) was 4 µg/mL and the MIC (S. aureus 586) was 8 µg/mL. For the same compound, the “times more effective than the reference chemotherapeutic (ciprofloxacin)” value [3] was 2–16 times and the inhibition zone diameter [4] was 14 mm.
